Experimental data as given in US5246926A, “Cephalosporin derivatives” (Beecham Group p.l.c., priority 1989, dated 1993).
≈ marks a conversion by molar mass, not a printed value.

Tests used:
[1] = tested on: E. coli (NCTC 10418); assay: In vitro antibacterial activity, M.I.C. against E. coli; format: cell-based; conditions: Escherichia coli, NCTC10418
[2] = tested on: S. aureus (Oxford); assay: In vitro antibacterial activity, M.I.C. against S. aureus; format: cell-based; conditions: Staphylococcus aureus

| Structure (SMILES) | MIC [1] | MIC [2] |
| --- | --- | --- |
| CO/N=C(\C(=O)N[C@@H]1C(=O)N2C(C(=O)[O-])=C(C3CCOC3=O)CS[C@H]12)c1csc(N)n1.[Na+] (mixture of isomers) [Example 15, Sodium (6R,7R)-7-[2-(2-aminothiazol-4-yl)-2-(Z)-methoxyiminoacetamido]-3-[(3RS)-2-oxotetrahydrofuran-3-yl]ceph-3-em-4-carboxylate] | 0.25 µg/mL | 4 µg/mL |
| CO/N=C(\C(=O)N[C@@H]1C(=O)N2C(C(=O)O)=C(C3COC(=O)C3)CS[C@H]12)c1csc(N)n1 (stereo partly shown) [Example 8] | 32 µg/mL (≈ 68.5 µM) | 4 µg/mL (≈ 8.56 µM) |

Next, values leading:

| MIC [1] | MIC [2] | Structure (SMILES) |
| --- | --- | --- |
| < 0.03 µg/mL | 1 µg/mL | CO/N=C(\C(=O)N[C@@H]1C(=O)N2C(C(=O)O)=C(C3CCC(=O)O3)CS[C@H]12)c1csc(N)n1 (mixture of isomers) [Example 3, Sodium (6R,7R)-7-[2-(2-Aminothiazol-4-yl)-2-(Z)-methoxyiminoacetamido]-3-[(5RS)-2-oxotetrahydrofuran-5-yl]ceph-3-em-4-carboxylate] |
| < 0.03 µg/mL | 0.25 µg/mL | Nc1nc(/C(=N/O)C(=O)N[C@@H]2C(=O)N3C(C(=O)O)=C(C4CCC(=O)O4)CS[C@H]23)cs1 (mixture of isomers) [Example 5, (6R,7R)-7-[2-(2-Aminothiazol-4-yl)-2-(Z)-hydroxyiminoacetamido]-3-[(5RS)-2-oxotetrahydrofuran-5-yl)ceph-3-em-4-carboxylic acid] |
| 0.12 µg/mL (≈ 0.235 µM) | 8 µg/mL (≈ 15.6 µM) | Nc1nc(/C(=N/OCC(=O)O)C(=O)N[C@@H]2C(=O)N3C(C(=O)O)=C(C4CCC(=O)O4)CS[C@H]23)cs1 (stereo partly shown) [Example 10] |
